This passage reports Emax, efficacy and pest or weed control results from patent publication USRE50663E1, “Heterocycle derivatives as pesticides” (Bayer Aktiengesellschaft, priority 2017, dated 2025).

Holding throughout (type): in vivo
Experiment [1] has as its system larvae of the mustard beetle (Phaedon cochleariae). In words: Comparative Phaedon cochleariae spray test (PHAECO). The settings on record: 168 h, 7 dat, read-out: % efficacy. As to the method: (§1) Solvent: 14 parts by weight of dimethylformamide
(§2) Emulsifier: alkylaryl polyglycol ether
(§3) To produce a suitable active compound formulation, 1 part by weight of active compound is dissolved with the specified parts by weight of solvent and made up to the desired concentration with water containing an emulsifier concentration of 1000 ppm. To produce further test concentrations, the formulation is diluted with emulsifier-containing water. If the addition of ammonium salts or/and penetrants is required, these are each added in a concentration of 1000 ppm to the formulation solution.
Cabbage leaves (Brassica oleracea) are sprayed with an active ingredient formulation of the desired concentration and populated with larvae of the mustard beetle (Phaedon cochleariae).
After the desired time, the kill in % is determined. 100% means that all the beetle larvae have been killed; 0% means that no beetle larvae have been killed.

For experiment [2], the system named is caterpillars of the cotton bollworm (Heliothis armigera). As to the kind of experiment: Comparative Heliothis armigera spray test (HELIAR). The settings on record: Helicoverpa armigera, 168 h, 7 dat, read-out: % efficacy. As to the method:
as §1, §2, §3
Cotton plants (Gossypium hirsutum) are sprayed with an active compound formulation of the desired concentration and, after drying, populated with caterpillars of the cotton bollworm (Heliothis armigera).
(§4) After the desired time, the kill in % is determined. 100% means that all caterpillars have been killed; 0% means that none of the caterpillars have been killed.

Experiment [3] relates to L2 larvae of the banded cucumber beetle (Diabrotica balteata). As to the kind of experiment: Comparative Diabrotica balteata drench test (DIABBA D). The settings on record: soil, 192 h, 8 dat, read-out: % efficacy. The procedure: (§5) Solvent: 7 parts by weight of dimethylformamide
(§6) Emulsifier: 2 parts by weight of alkylaryl polyglycol ether
(§7) To produce a suitable active ingredient formulation, 1 part by weight of active ingredient is mixed with the specified amounts of solvent and emulsifier, and the concentrate is diluted with water to the desired concentration, it being necessary to take into account the volume of soil which is drenched. It should be ensured that a concentration of 40 ppm of emulsifier in the soil is not exceeded. To produce further test concentrations, water is used for dilution.
In each case 5 maize corns (Zea mays) are sown into pots filled with earth, and the next day the pots are watered with the active compound preparation of the desired concentration. After one day, about 25 L2 larvae of the banded cucumber beetle (Diabrotica balteata) are added.
After 8 days, the efficacy in % is determined. 100% means that all 5 plants have germinated and grown; 0% means that none of the plants has emerged.

For experiment [4], the system named is caterpillars of the armyworm (Spodoptera frugiperda). As to the kind of experiment: Comparative Spodoptera frugiperda drench test (SPODFR D). The settings on record: soil, 336 h, 14 dat, read-out: % efficacy. The procedure:
as §5, §6, §7
Maize plants (Zea mays) in pots of soil are watered with an active ingredient formulation of the desired concentration and infected with caterpillars of the armyworm (Spodoptera frugiperda).
as §4

Experiment [5] has the same test system. In words: Comparative Spodoptera frugiperda spray test (SPODFR). The following applies: 168 h, 7 dat, read-out: % efficacy. The procedure:
as §1, §2, §3
Cotton leaves (Gossypium hirsutum) are sprayed with an active ingredient formulation of the desired concentration and populated with caterpillars of the armyworm (Spodoptera frugiperda).
as §4

The test system of experiment [6] is larvae of the diamondback moth (Plutella xylostella). In words: Comparative Plutella xylostella spray test (PLUTMA). The following applies: 168 h, 7 dat, read-out: % efficacy. As to the method:
as §1, §2, §3
Cabbage leaves (Brassica oleracea) are sprayed with an active ingredient formulation of the desired concentration and infected with larvae of the diamondback moth (Plutella xylostella).
as §4

Experiment [7] deals with green peach aphid (Myzus persicae). As to the kind of experiment: Comparative Myzus persicae drench test (MYZUPE D). The following applies: soil, 240 h, 10 dat, read-out: % efficacy. The procedure: as §5, §6, §7
Savoy cabbage (Brassica oleracea) in pots with soil and infested by all stages of the green peach aphid (Myzus persicae) is watered with an active ingredient formulation of the desired concentration.
After the desired period of time, the efficacy in % is determined. 100% means that all the aphids have been killed; 0% means that no aphids have been killed.

Experiment [8] shares this test system. In words: Comparative Myzus persicae spray test (MYZUPE). The following applies: 144 h, 6 dat, read-out: % efficacy. The procedure:
as §1, §2, §3
Bell pepper plants (Capsicum annuum) severely infested with the green peach aphid (Myzus persicae) are treated by spraying with the active ingredient formulation in the desired concentration.
After the desired time, the kill in % is determined. 100% means that all the animals have been killed; 0% means that no animals have been killed.

Experiment [9] deals with greenhouse red spider mite (Tetranychus urticae). As to the kind of experiment: Tetranychus urticae spray test, OP-resistant. The following applies: 20 g/ha, after 6 days, bean leaf discs. The procedure:
Solvent: 78.0 parts by weight of acetone • • 1.5 parts by weight of dimethylformamide
as §2
To produce a suitable active compound formulation, 1 part by weight of active compound is dissolved with the specified parts by weight of solvent and made up to the desired concentration with water containing an emulsifier concentration of 1000 ppm. To produce further test concentrations, the formulation is diluted with emulsifier-containing water.
Discs of bean leaves (Phaseolus vulgaris) infested with all stages of the greenhouse red spider mite (Tetranychus urticae) are sprayed with an active compound formulation of the desired concentration.
After 6 days, the efficacy in % is determined. 100% means that all the spider mites have been killed; 0% means that no spider mites have been killed.

Experiment [10] deals with green peach aphid (Myzus persicae). As to the kind of experiment: Myzus persicae spray test. The following applies: foliar, 120 h, 100 g/ha, after 5 days, Chinese cabbage leaf discs, read-out: efficacy. The method, boiled down:
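One part compound was dissolved in 78 parts acetone and 1.5 parts dimethylformamide, then diluted in water with 1000 ppm alkylaryl polyglycol ether. Chinese cabbage leaf discs carrying all aphid stages were sprayed. Percent kill was scored after 5 days (100% = all aphids dead).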

In experiment [11] the test system is larvae of the mustard beetle (Phaedon cochleariae). As to the kind of experiment: Phaedon cochleariae spray test. The following applies: foliar, 168 h, 100 g/ha, after 7 days, Chinese cabbage leaf discs, read-out: efficacy. The gist of the method:
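Chinese cabbage leaf discs sprayed with compound formulated in acetone/DMF and emulsifier-containing water, then infested with mustard beetle larvae after drying. Efficacy (% larvae killed) scored after 7 days.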

The subject of experiment [12] is adult cat fleas (Ctenocephalides felis). As to the kind of experiment: Ctenocephalides felis oral test. The settings on record: 48 h, 100 ppm in citrated cattle blood, after 2 days, read-out: efficacy (kill). The gist of the method: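 Test compound in DMSO, diluted in citrated cattle blood to the test concentration and offered to ~20 unfed adults through a parafilm membrane. Kill % scored after 2 days (100% = all fleas dead, 0% = none).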

Experiment [13] concerns caterpillars of the fall armyworm (Spodoptera frugiperda). As to the kind of experiment: Spodoptera frugiperda spray test. The following applies: foliar, 168 h, 100 g/ha, after 7 days, maize leaf discs, read-out: efficacy. The gist of the method: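 Maize leaf discs sprayed with compound formulated in acetone/dimethylformamide and diluted in water with 1000 ppm alkylaryl polyglycol ether emulsifier, then infested with fall armyworm caterpillars once dry. Efficacy read after 7 days as % caterpillars killed (100% = all dead, 0% = none).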

As for `CCS(=O)(=O)c1c(-c2nc3cc(C(F)(F)F)cnc3n2C)nc2cc(C3CC3)ccn12` [known from WO 2016/162318, reference compound], the Emax at 0.8 ppm worked out at 0% in experiment [1] (0.8 ppm), 30% in experiment [3] (0.8 ppm), 0% in [7] and 0% in [8]. For the same compound, the Emax at 4 ppm in experiment [1] (4 ppm) is 60%; in [3] (4 ppm) it was 70%. Besides, the Emax at 0.16 ppm in [2] was found to be 10%; in experiment [4] it was 40%; in experiment [5], 65%; in experiment [6], 45%.
In the case of `CCS(=O)(=O)c1c(-c2nc3cc(C(F)(F)F)cnc3n2C)nc2cc(C(F)C3CC3)ccn12` (stereo not drawn) [Example I-22], in experiment [9], the efficacy is 90%. The pest or weed control at 100 g/ha in experiment [10] turned out to be 90%; in experiment [11], 100%; in experiment [13], 100%. For the same compound, the pest or weed control at 100 ppm in experiment [12] came out at 100%.
